Like-named read-outs stand apart in the source and are kept apart here.
Tests used:
[1] = system: HT-144 cells; experiment: MTT cell viability assay, HT-144 melanoma cells; assay type: cell-based, human; settings: for Cell viability inhibition, HT-144 (result in words): 10–100 μM, 6, 24 and 48 h; for IC50: Homo sapiens, HT-144, 24 h
Method: (§1) Three cell types were studied. The HT-144 and SKMEL-28 cell lines derived from human melanoma and were obtained from the American Tissue Culture Collection (ATCC). They were grown in Mc Coy’s 5a modified and minimal essential medium (MEM) respectively, supplemented with 10% (v/v) fetal bovine serum (FBS) and 1% (v/v) antibiotic (penicillin, streptomycin) at 37 °C in a humidified atmosphere of 5% CO2. Human dermal fibroblasts (HDF) were isolated from skin biopsies of healthy subjects. Briefly, the hypodermis was mechanically removed and explants were cut in 1 mm^2 pieces. Skin fragments were then cultivated in Dulbecco’s minimal essential medium (DMEM) supplemented with 20% FBS, 1% antibiotic and 1% fungizone at 37 °C in a humidified atmosphere of 5% CO2. The medium was changed every two days. After 4 weeks of cultures, fibroblasts have covered all the surface of the culture dishes and were trypsined. Cells were grown in DMEM containing 10% FBS and 1% antibiotic at 37 °C in a humidified atmosphere of 5% CO2. Subcultures 3 to 9 were used in this study.
(§2) The three cell types were seeded into 96-well plates (0.32 cm^2, 5500 cells in 200 μL medium par well). After 24 h of culture, the cells were treated in triplicate wells with different bio-produced stilbenes and synthetic resveratrol (≥99%, Sigma-Aldrich, Saint-Quentin Fallavier, France) amounts and treatment times. Compounds were dissolved in ethanol at a 5 × 10^−2 M final concentration and stored at −20 °C. Compounds were diluted in culture media, with or without FBS, to the desired final concentration. All control and treated cells received a maximal volume of 0.1% (v/v) of ethanol.
(§3) Cell viability was tested by the MTT [3-(4,5-dimethyl thiazol-2yl)-2,5-diphenyltetrazolium bromide] assay (Sigma-Aldrich). After MTT addition (0.5 mg/mL), the plates were incubated for 3 h at 37 °C in a humidified atmosphere of 5% CO2. At the end of the incubation period, the medium was removed and the converted dye was solubilized with dimethyl sulfoxide (DMSO). Absorbance of the converted dye was measured at a wavelength of 560 nm using a plate reader Tecan F200 Pro (Tecan, Lyon, France). The 50% inhibitory concentration (IC50) for each bio-produced stilbene was defined as the concentration producing 50% decrease in cell growth.

[2] = system: SKMEL-28 cells; experiment: MTT cell viability assay, SKMEL-28 melanoma cells; assay type: cell-based, human; settings: for Cell viability inhibition, SKMEL-28 (result in words): 10–100 μM, 6, 24 and 48 h; for IC50: Homo sapiens, SK-MEL-28, 24 h
Method: as §1, §2, §3

[3] = system: HDF cells; experiment: MTT cell viability assay, healthy human dermal fibroblasts; assay type: cell-based; settings: for Cell viability inhibition, HDF (result in words): 10–100 μM, 6, 24 and 48 h; for IC50: Homo sapiens, HDF, 24 h
Method: as §1, §2, §3

[4] = with FBS (10% FBS), read-out: IC50 HT-144 with FBS
[5] = without FBS (0% FBS), read-out: IC50 HT-144 without FBS
[6] = with FBS (10% FBS), read-out: IC50 SKMEL-28 with FBS
[7] = without FBS (0% FBS), read-out: IC50 SKMEL-28 without FBS
[8] = with FBS (10% FBS), read-out: IC50 HDF with FBS
[9] = without FBS (0% FBS), read-out: IC50 HDF without FBS

| Compound | Cell viability inhibition, HT-144 (result in words) [1] | IC50 [1, 4] [µM] | IC50 [1, 5] [µM] | Cell viability inhibition, SKMEL-28 (result in words) [2] | IC50 [2, 6] [µM] | IC50 [2, 7] [µM] | Cell viability inhibition, HDF (result in words) [3] | IC50 [3, 8] [µM] | IC50 [3, 9] [µM] |
| --- | --- | --- | --- | --- | --- | --- | --- | --- | --- |
| Oc1ccc(C(O)C(Oc2ccc(C=Cc3cc(O)cc(O)c3)cc2)c2cc(O)cc(O)c2)cc1 (stereo not drawn) [Dimer (6)] | significant cell viability inhibition | > 100 | 24.9 ± 0.62 | significant cell viability inhibition | > 100 | 23 ± 0.3 | significant cell viability inhibition | > 100 | 22.2 ± 2.61 |
| Oc1ccc([C@@H]2c3c(O)cc(O)cc3[C@H]3[C@H](c4ccc(O)cc4)c4c(O)cc(O)cc4[C@@H]23)cc1 [Pallidol, pallidol] | – | > 100 | > 100 | – | > 100 | > 100 | – | > 100 | > 100 |
| Oc1ccc(/C=C/c2cc(O)cc(O)c2)cc1 [Trans-resveratrol, trans-resveratrol] | – | 93.3 ± 7.6 | > 100 | – | > 100 | > 100 | – | > 100 | > 100 |
| Oc1ccc(/C=C/c2cc(O)cc(O)c2)cc1 [synthetic resveratrol, trans-resveratrol, reference compound] | dose-dependent decrease in cell growth | – | – | dose-dependent decrease in cell growth | – | – | dose-dependent decrease in cell growth | – | – |
| Oc1ccc(/C=C/c2cc(O)cc3c2[C@@H](c2cc(O)cc(O)c2)[C@H](c2ccc(O)cc2)O3)cc1 [ɛ-viniferin, ε-viniferin] | significant cell viability inhibition | 82.3 ± 3.23 | 17.58 ± 0.09 | significant cell viability inhibition | 86.6 ± 2.59 | 15.9 ± 0.44 | significant cell viability inhibition | 91.9 ± 11.3 | 16.4 ± 1.19 |
